The text below walks through data of article PMC9007292, “8‐Prenylnaringenin tissue distribution and pharmacokinetics in mice and its binding to human serum albumin and cellular uptake in human embryonic kidney cells” (Food Science & Nutrition, 2022).

For data set [1], the target named is site II of HSA (Homo sapiens, UniProt P02768). The experiment in a line: Fluorescence competitive binding assay with site‐selective probe BD140. The following applies: for Competitive inhibition rate of the probe binding, Site II: BD140 probe, 100 µM, n = 3, mean ± SE; for inhibition at 100 µM: human, defatted human serum albumin (HSA) in phosphate buffer, pH 7.4, probe BD140.
site II of HSA, sequence (P02768 25-609): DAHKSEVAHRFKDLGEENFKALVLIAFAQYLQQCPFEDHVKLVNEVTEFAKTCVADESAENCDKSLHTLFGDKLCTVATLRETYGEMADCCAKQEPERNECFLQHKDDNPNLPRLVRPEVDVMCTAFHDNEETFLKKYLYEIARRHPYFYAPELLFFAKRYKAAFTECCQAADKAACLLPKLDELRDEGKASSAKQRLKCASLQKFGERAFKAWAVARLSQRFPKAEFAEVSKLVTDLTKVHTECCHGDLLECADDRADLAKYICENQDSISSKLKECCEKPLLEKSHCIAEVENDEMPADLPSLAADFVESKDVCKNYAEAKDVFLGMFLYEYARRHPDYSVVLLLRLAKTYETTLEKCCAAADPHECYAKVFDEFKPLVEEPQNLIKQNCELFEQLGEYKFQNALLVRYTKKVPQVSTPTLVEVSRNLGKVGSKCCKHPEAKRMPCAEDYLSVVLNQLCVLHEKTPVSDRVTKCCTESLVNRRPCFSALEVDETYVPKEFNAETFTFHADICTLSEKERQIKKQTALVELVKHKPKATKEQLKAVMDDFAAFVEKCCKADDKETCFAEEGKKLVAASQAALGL
Procedure: (§1) A fluorescent dye cocktail containing 0.33 mM BD140 and 1 mM DNSA was prepared in DMSO. Defatted HSA (A3782‐1G; Sigma‐Aldrich) was dissolved in phosphate buffer (pH 7.4) at a concentration of 0.67 mg/ml. Each flavonoid was dissolved in DMSO (stock solution) at 100 times the test concentration. Subsequently, 637 µl HSA solution, 6.5 µl fluorescent dye cocktail, and 6.5 µl flavonoid were mixed and divided into three wells on a 96‐well multi‐black plate. The final concentration of flavonoids was 1–100 μM. […] The HSA‐binding affinities of the flavonoids were evaluated by measuring the competitive inhibition rate of the probes binding to flavonoids according to Equation (1): (1) Flavonoidinhibitionpercentage(%)=F1‐F2/F1×100, where F 1 is the fluorescence intensity of DMSO and F 2 represents the fluorescence intensity of each flavonoid.

The target in data set [2] is site I of HSA (Homo sapiens, UniProt P02768). The experiment in a line: Fluorescence competitive binding assay with site‐selective probe DNSA. The note with it: for Competitive inhibition rate of the probe binding, Site I / Inhibition ratio, site I: DNSA probe; for Competitive inhibition rate of the probe binding, Site I: 100 µM, n = 3, mean ± SE; for inhibition at 100 µM: human, defatted human serum albumin (HSA) in phosphate buffer, pH 7.4, probe dansylamide (DNSA).
site I of HSA, sequence (P02768 25-609): as above
Procedure: as §1

Details of data set [3]: method as in Rad et al., 2006. The following applies: postmenopausal women, mostly conjugated metabolites, ref Rad et al., 2006; cited from earlier work.
A short description of data set [4]: Tissue distribution after 22 days of 8‐PN or naringenin mixed diet. It counts as in vivo, C57/BL6 mice. The note with it: for Percentage of aglycone in the liver: aglycone to total; for 8‐PN aglycone in the liver: without deconjugation. An excerpt: We planned the nutritional composition and feeding period according to previous similar research (Andres-Lacueva et al., [2012]; Bieger et al., [2008]; Boer et al., [2005]; Mukai et al., [2013]; Takumi et al., [2011]). […] Though this dose concentration may not be achieved through regular diet or supplementation, this concentration was used in accordance with previous studies that evaluated the tissue distribution of flavonoids (0.2% [w/w]) (Mukai et al., [2013]; Takumi et al., [2011]). The mice were fed each diet via normal oral feeding for 22 days. In the pharmacokinetic study (Section 2.5), we administered each nutrient to mice at a dose of 50 mg/kg body weight (BW) via oral gavage after 18 h of starvation. Although this dose concentration may not reflect regular diet or supplementation, this or higher concentrations have been applied for pharmacokinetic study of flavonoids (Bai et al., [2020]; Hung et al., [2018]; Mukai et al., [2013]). All experimental protocols were approved by the Committee on Animal Experiments of Tokushima University (approval number: 11013). All efforts were made to minimize animal suffering. Seven-week-old male C57/BL6 mice (Japan SLC) were housed in a room maintained at 23 ± 1°C under a 12-h/12-h light/dark cycle. Diets consisted of 8-PN or naringenin (0.56 mmol/kg diet) mixed with AIN-93M (AIN-93M; Oriental Yeast Company), with the cellulose contents reduced to adjust the composition of other nutrients. The mice (n = 7 or 8) were fed these diets via normal oral feeding for 22 days and allowed free access to water. The liver, kidneys, quadricep muscles, pancreas, lungs, brain, spleen, and heart were collected from the mice under anesthesia and weighed. Before freezing, the liver tissues were flushed with ice-cold phosphate-buffered saline (PBS, pH 7.4) to avoid blood contamination. All samples were stored at -80°C under N2 gas until extraction of flavonoid. Sample preparation was performed according to a previous report (Mukai et al., [2013]). Each tissue was homogenized in PBS on ice (nine times the volume of the tissue wet weight) using a Teflon homogenizer (As One). […] The hydrolysates were then subjected to extraction three times with equal volumes of ethyl acetate and evaporated using a centrifugal evaporator (CVE-100; Tokyo Rikakikai). The extracts were dissolved in 50 μl of methanol containing 0.5% phosphoric acid. Then, 20 μl from each sample was injected into the HPLC-UV system. […] Shimadzu) with a Cadenza CD-C18 HPLC column (3 μm, 4.6 × 150 mm; […]). […] 8-PN and naringenin amounts were determined using an internal standard method. […] Since a clear peak was actually detected for 8-PN over 2 pmol (0.1 μM), and for naringenin over 4 pmol (0.2 μM) based on visual evaluation, we determined these concentrations were the LODs for each flavonoid.

Structures are written as SMILES. Where “and” joins values, the source holds several entries; their conditions need not be identical. Equal entries are not always repeated.

As for `O=C1C[C@@H](c2ccc(O[C@@H]3O[C@H](C(=O)O)[C@@H](O)[C@H](O)[C@H]3O)cc2)Oc2cc(O)cc(O)c21` [N4′G, Naringenin 4′‐glucuronide, reference compound], in data set [1], the “Competitive inhibition rate of the probe binding, Site II” value (from here on “Competitive inhibition rate … Site II”) is 2.4 ± 2.4%. In data set [2], the “Competitive inhibition rate of the probe binding, Site I” value worked out at 5.2 ± 2.8%.

The term inhibition denotes the change of the read-out against control, counted positive when it falls. As for `CC(C)=CCc1c(O)cc(O)c2c1O[C@H](c1ccc(O)cc1)CC2=O` [8‐PN, 8‐Prenylnaringenin], the inhibition at 100 µM in data set [1] amounted to 28.3 ± 2.8%; in data set [2] it was 61.1 ± 0.6%. Moreover, the “Inhibition ratio, site I” value was determined as 10.3% in data set [2] (1 µM) and 36.7% in data set [2] (50 µM). Moreover, in data set [3], the “Time of absorption into the bloodstream after oral administration” value is 1 to 1.5 h. The “Percentage of aglycone in the liver” value is 11.7% in data set [4] (average of 7 mice); 15.9% and 20.9% and 9.5% and 6.3% and 7.8% and 5.7% and 15.7% in data set [4] (individual mice #1-7). In addition, the “8‐PN aglycone in the liver” value in data set [4] (average of 7 mice) is 1.58 nmol/g wet tissue; in data set [4] (individual mice #1-7, 22 days diet), 0.62 nmol/g wet tissue and 3.23 nmol/g wet tissue and 1.62 nmol/g wet tissue and 1.50 nmol/g wet tissue and 0.66 nmol/g wet tissue and 1.18 nmol/g wet tissue and 2.24 nmol/g wet tissue.

With `O=C1C[C@@H](c2ccc(O)cc2)Oc2cc(O)cc(O)c21` [Naringenin], the inhibition at 100 µM in data set [1] turned out to be 8.3 ± 3.9%; in data set [2] it was 25.3 ± 0.4%.

For the molecule `CC(C)=CCc1c(O[C@@H]2O[C@H](C(=O)O)[C@@H](O)[C@H](O)[C@H]2O)cc(O)c2c1OC(c1ccc(O)cc1)CC2=O` (stereo partly shown) [8‐PN‐7G, 8‐PN 7‐glucuronide], the “Competitive inhibition rate … Site II” value in data set [1] is given as “n.d. ^a (The result without competitive inhibition (≤0) with the fluorescent probe is shown as not determined (n.d.))”. Besides, the “Inhibition ratio, site I” value is given as 12.8% in data set [2] (1 µM) and 37.9% in data set [2] (50 µM). Moreover, the “Competitive inhibition rate of the probe binding, Site I” value in data set [2] is 37.2 ± 0.6 %. Besides, the “Binding constant to HSA” value in data set [2] (from competition profile for site I (Figure 3)) was 24200 M.

`CC(C)=CCc1c(O)cc(O)c2c1OC(c1ccc(O[C@@H]3O[C@H](C(=O)O)[C@@H](O)[C@H](O)[C@H]3O)cc1)CC2=O` (stereo partly shown) [8‐PN‐4′G, 8‐PN 4′‐glucuronide]: the “Competitive inhibition rate … Site II” value in data set [1] is on record as “n.d. ^a (The result without competitive inhibition (≤0) with the fluorescent probe is shown as not determined (n.d.))”. Also, the “Competitive inhibition rate of the probe binding, Site I” value in data set [2] is listed as “n.d. ^a (The result without competitive inhibition (≤0) with the fluorescent probe is shown as not determined (n.d.))”.

Take `O=C1C[C@@H](c2ccc(O)cc2)Oc2cc(O[C@@H]3O[C@H](C(=O)O)[C@@H](O)[C@H](O)[C@H]3O)cc(O)c21` [N7G, naringenin 7‐glucuronide, reference compound]: the “Competitive inhibition rate … Site II” value in data set [1] came to 9.6 ± 4.8%. In addition, in data set [2], the “Competitive inhibition rate of the probe binding, Site I” value stood at 10.0 ± 3.0%.
